# Reference: patent publication US6805865B1, “Compositions and methods for treating cancer and hyperproliferative disorders” (EntreMed, Inc., priority 1993, dated 2004)
# Tests used:
# HUVEC = assay: bFGF stimulated HUVEC proliferation in the presence of bFGF peptides; assay type: cell-based; settings: free synthetic peptide, in vitro
# bFGF = assay: Serum antibody response (ELISA) after vaccination with bFGF peptides conjugated to lipid A liposomes; assay type: in vivo; settings: C57BL/6J mice, peptide covalently conjugated to liposomal vesicles containing lipid A
# Text: Both peptides A and B were incorporated into lipid A containing liposomes and used separately in a vaccination protocol. Peptides were conjugated to liposomes according to the methods and protocols described above in Example 8. Mice were immunized and boosted twice, bled and pooled serum analyzed for anti-peptide antibody titer and crossreactivity to bFGF by ELISA.
# The comparison of titers and crossreactivity for serum from mice vaccinated with whole bFGF or with the liposomal heparin binding domain peptide of bFGF vaccine is shown in FIG. 4 and a comparison of the titers and crossreactivity for serum from mice vaccinated with whole bFGF or the liposomal receptor binding domain peptide of bFGF vaccine is shown in FIG. 5.
# B16BL6 melanoma = assay: Growth of B16BL6 tumor cells in vitro with peptide and bFGF (cell counts); assay type: cell-based, murine; settings: 10,000 cells/well, various peptide concentrations, media with 5 ng/ml bFGF
# Protocol: B16BL6 melanoma were plated at 10,000 cells/well in a 24 well plate and incubated overnight. […] This example provides methods useful for selecting peptides useful for the methods and compositions of the present invention.
# [1] = system: bFGF-induced vascularization; assay: bFGF-containing gelatin sponge implanted on liver of vaccinated mice, histology; assay type: in vivo; settings: peptide-liposome vaccinated mice, sponge with recombinant human bFGF on liver, 14 days after implantation
# Text: Following the vaccination protocol, mice were challenged with bFGF impregnated sponges and neovascularization assessed after 14 days, the results are shown in FIG. 6.
# In order to determine if generation of antibody to the bFGF molecule has an effect on bFGF-induced vascularization, gelatin sponges containing recombinant human bFGF were implanted onto the left lobe of the liver of mice following vaccination with the liposomal lipid A controls, liposomes containing the heparin binding domain peptide, liposome containing the receptor binding domain peptide, or PBS. Fourteen days following implantation, the sponges were removed. Vascularity and leukocyte infiltration were assessed histologically. Well defined blood vessels containing red blood cells were evident in sponges removed from mice vaccinated with control preparations (liposomal lipid A and PBS). In addition, there was an abundant amount of cellular infiltration, consisting of white blood cells and fibroblasts. […] Although red blood cells were present in the histological sections of the sponge taken from mice vaccinated with the heparin binding domain peptide, they lacked well defined structures surrounding them.
# B16-BL6 melanoma cells = assay: B16-BL6-containing gelatin sponge implanted on liver of vaccinated mice, histology; assay type: in vivo; settings: peptide-liposome vaccinated mice, 14 days after implantation
# Text: In order to determine if vaccination could inhibit the angiogenesis induced by a tumor, gelatin sponges were implanted containing B16-BL6 melanoma cells onto the liver of mice following vaccination with control liposomes (liposomal lipid A), liposomes linked to the heparin binding domain peptide, liposomes linked to the receptor binding domain peptide, or PBS. Fourteen days following implantation, the sponges are removed and examined histologically. Sponges removed from mice vaccinated with liposomal lipid A and PBS contained viable and proliferating B16BL6 tumor cells. In addition, neovascularization into the sponge was abundant. […] Similar to findings from sponges containing bFGF, there was a tremendous amount of red blood cells lacking defined structures surrounding them.
# B16BL6 = B16BL6 experimental lung metastasis after intravenous challenge of vaccinated mice; assay type: in vivo; settings: peptide conjugated to liposomes, vaccinated and boosted, intravenous melanoma challenge, 14 days
# Text: Fourteen days after the mice were vaccinated, boosted, and challenged with B16B16 murine melanoma, the animals were sacrificed and the lungs were removed and numbers of melanotic tumor nodules on the surface were counted.
# Two weeks following the final boost , mice were intravenously challenged with B16BL6. Mice were sacrificed at day 14 following challenge. […] The heparin binding domain peptide bFGF covalently linked to liposomes was used as a positive control in this experiment.
# LLC-LM = LLC-LM experimental metastatic model, intravenous challenge, lung weight; assay type: in vivo, mice; settings: peptide in liposome format, 3 inoculations two weeks apart, day 17, based on lung weight, versus control
# Protocol: Efficacy of vaccination of mice with the heparin binding domain peptide bFGF in a liposome format was determined in the LLC-LM experimental metastatic model.
# Mice were vaccinated with the heparin binding domain peptide of bFGF in a liposome format using the same vaccination regimen as in the B16BL6 experiments above (3 inoculations two weeks apart). Two weeks following the final boost, mice were intravenously challenged with LLC-LM. At day 17, the control (no treatment) mice began to succumb to the tumor burden in the lung. All groups were sacrificed. Lungs were removed and analyzed based on lung weight. Normal lung weight was subtracted out of the treated and non-treated groups to determine the T/C. Vaccination with the heparin binding domain peptide inhibited the growth and development of LLC-LM experimental metastasis by 94% when compared to control. These lungs have been photographed and will be assessed histologically.
Sequence,bFGF stimulated HUVEC proliferation (HUVEC),antibody response in serum (bFGF),bFGF stimulated HUVEC proliferation (HUVEC; listed as heparin-binding domain peptide),"growth of B16BL6 cells, cell counts (B16BL6 melanoma)",cellular infiltration and neovascularization of bFGF sponge [1],neovascularization and tumor growth in B16-BL6 sponge (B16-BL6 melanoma cells),mean number of lung metastases (B16BL6),inhibition of growth and development of LLC-LM experimental metastasis (LLC-LM) [%]
"SNNYNTYRSRKYSSWYVALKR (listed as Homo sapiens) [receptor binding domain peptide, used free or conjugated to lipid A liposomes]",inhibited,no antibody response,–,–,–,–,–,–
"YCKNGGFFLRIHPDGRVDGVREKSDPHIKLQLQAEERGV VSIKGV (YCKNGGFFLRIHPDGRVDGVREKSDPHIKLQLQAEERGVVSIKGV; listed as Homo sapiens) [heparin binding domain peptide, used free or conjugated to lipid A liposomes]",inhibitory effect,antibody response,inhibited,no significant effect,lack of cellular infiltration and neovascularization,blocked neovascularization and caused ablation of tumor growth and development,significantly reduces,94
